The test system of one data set is Citrated plasma. Put plainly: Measurement of PT (prothrombin time) in citrated plasma. The data set is classed as biochemical. Conditions: STA-Neoplastine, 37° C., unit not given (2×PT value). How it is done:
The effect of oxazolidinone derivatives with cyclic amidines represented by Chemical Formula (1) according to the invention on blood coagulation was compared by measuring PT (prothrombin time) and aPTT (activated Partial Thromboplastin Time). The procedure of measurement is described below. Citrated plasma was purchased from Daejeon-Chungnam Blood Institute (located at Daejeon, Korea). A compound solution (5 μL) according to the invention (in a various concentration gradient, 5% DMSO solution) was added to the plasma ([…]), and the reaction was carried out at 37° C. for 5 minutes. STA-Neoplastine (Diagnostica Stago) (100 μL) was then added thereto, and the duration for plasma coagulation was measured. The duration for plasma coagulation is determined as the point when the absorbance at 340 nm reaches 0.1.

Data set [1] in a line: Determination of aqueous solubility. The data set is classed as physicochemical. Conditions: aqueous with cosolvent or surfactant or cyclodextrin, kinetic from dmso stock; 100 mM potassium phosphate buffer pH 7.4, 5% DMSO, final concentration 500 μM, ambient temperature 90 minutes. The procedure:
The plate was agitated at ambient temperature for 90 minutes with a rate of 225 rpm. After agitation, the content of the plate was filtered with application of pressure. The filtrate (160 μL) was individually transferred to a uv-96 well plate (Costar), and mixed with 40 μL of acetonitrile, and then agitated at ambient temperature for 10 minutes with a rate of 225 rpm. By means of a plate reader (Molecular Devices, Spectramax 190), absorbances at the wavelengths of 280, 300, 320, 340, 360 and 800 nm were measured. As a reference solution, employed was 100 mM potassium phosphate buffer (pH 7.4) containing 20% acetonitrile added by 10 mM DMSO solution (8 μL).

The subject of another data set is thrombus formation. Briefly: % inhibition against thrombus formation, arteriovenous shunt model in white rats. The data set is classed as in vivo, white rats (male Sprague Dawley). Details: concentration or dose not given beside the values. Conditions: orally administered 1 hour before opening of the shunt; 15 minutes circulation; versus control group. How it is done: 3) Determination of % Inhibition Against Thrombus Formation by Means of Arteriovenous Shunt Model ([…]) in White Rats Antithrombotic effect of the compounds according to the present invention was evaluated by using arteriovenous shunt model in white rats. The animals used were male Sprague Dawleys with the body weight of 200-250 g. For one day before the experiment, the animals were fasted. Five to six animals were used for each test group. The compound of Example was orally administered 1 hour before opening of the shunt. The rats were anesthetized by abdominal administration of Rompun (Bay HealthCare) and Chloral hydrate or urethane in an amount of 12 and 50 mg per kg of the body weight. Into the left carotid artery and right jugular vein of the white rat, a polyethylene(PE)-60 tubing filled with physiological saline was inserted and secured. Both ends of individual PE tubing were connected to a silicone tubing having a length of 5 cm in which a cotton thread have been incorporated diagonally, and the shunt was open to provide circulation for 15 minutes. The shunt was then compressed by using jaws, and the cotton thread was carefully removed and the thrombus generated was weighed. The % inhibition of thrombus formation was calculated by using the weight of thrombus obtained from white rats of the control group to which a solution of oral administration was administered.

Data set [2] has as its target T1, factor Xa (Homo sapiens, UniProt P00742).
T1 construct: purchased Enzyme Research Laboratories
Put plainly: Inhibiting activity of factor Xa inhibitor (chromogenic substrate S-2765). The data set is classed as biochemical. Conditions: calculated from IC50 by Equation 1, Km 125 μM; S-2765 substrate, pH 7.8, 37° C.; read-out: Ki (nM), factor Xa inhibition constant. The procedure: Relative rate of hydrolysis (as compared to control group without inhibition) was plotted versus logarithm of the concentration of the oxazolidinone derivative with a cyclic amidine represented by Chemical Formula (1) according to the invention, to obtain the concentration of the inhibitor for 50% decrease in the rate of hydrolysis of the substrate.
The inhibition constant can be obtained by spectrophotometry whereby the color development is determined as a function of time, after being reacted with a specific substrate which develops color upon hydrolysis caused by action of factor Xa.
For the inhibitor solution, the inhibitor compound according to the present invention was diluted with dimethylsulfoxide (DMSO) in 10 mM, and then further diluted with third-distilled water (finally 10% DMSO solution), and the solution (10 μL) was added to each well. […] The substrate solution (20 μL) thus prepared was added to each well.
Kinetic analysis of the reaction was performed by a kinetic plate reader (Molecular Devices, Spectramax 190) at 37° C. for 20 minutes.
Relative rate of hydrolysis (compared to control group without inhibition) versus logarithm of the oxazolidinone derivative with a cyclic amidine group (Chemical Formula I) was plotted to obtain the concentration of the inhibitor to decrease the rate of hydrolysis of the substrate by 50%. GraFit (version 5.0.12) program for statistical process purchased from Erithacus Software was employed.
When inhibition constant Ki is calculated, it can be calculated according to Equation (1).

The test system of the next data set is plasma. Briefly: Measurement of aPTT (activated partial thromboplastin time) in plasma. Type of data set: biochemical. Further details: unit not given here. Conditions: STA-PTT, CaCl2, 37° C., unit not given. How it is done: The effect of oxazolidinone derivatives with cyclic amidines represented by Chemical Formula (1) according to the invention on blood coagulation was compared by measuring PT (prothrombin time) and aPTT (activated Partial Thromboplastin Time). The procedure of measurement is described below. A solution (5 μL) of the oxazolidinone derivative with cyclic amidine group represented by Chemical Formula (1) according to the invention (in a various concentration gradient, 5% DMSO solution) was added to the plasma ([…]), and the reaction was carried out at 37° C. for 2 minutes. STA-PTT (Diagnostica Stago) (50 μL) was then added thereto. After the reaction at 37° C. for additional 5 minutes, 25 mM CaCl2 (50 μL) was added thereto, and the duration for plasma coagulation was measured. The duration for plasma coagulation was determined as the point when the absorbance at 340 nm reaches 0.1.

In the next data set the test system is plasma protein. Put plainly: Determination of plasma protein binding (ultrafiltration, LC-MS/MS). The data set is classed as in vitro ADME. Conditions: citrated plasma, 37° C., 60 minutes, Ultracel-10 filter. How it is done:
Citrated plasma was purchased from Daejeon-Chungnam Blood Institute (located at Daejeon, Korea). A compound solution (500 μM in DMSO) (10 μL), according to the invention Was added to the plasma (1 mL), and the reaction was carried out at 37° C. and 120 rpm for 60 minutes. To three wells of Ultracel-10 filter plate (Millipore), the reaction solution was transferred (300 μL each). Then, the plasma solution (70 μL) was taken, and the total concentration of the compound was quantified by means of LC-MS/MS (API3000, ABI). After centrifuging the Ultracel-10 filter plate at 37° C. and 2000×g for 45 minutes, the filtrate was taken to determine the concentration of the compound which was not bound to the plasma protein. Percentage of plasma protein binding was obtained via Equation (2): % Protein binding=(1−concentration of compound in filtrate/concentration of compound in entire solution)×100% Free=100−% Protein binding [Equation 2]

For data set [3], the target named is T1, factor Xa. Conditions: background art; cited from earlier work.

In brackets after ≈: the same amount, converted by molar mass. Read-outs that look alike come from different tables or passages of the source.

T1 sequence (P00742 235-488 limits assumed): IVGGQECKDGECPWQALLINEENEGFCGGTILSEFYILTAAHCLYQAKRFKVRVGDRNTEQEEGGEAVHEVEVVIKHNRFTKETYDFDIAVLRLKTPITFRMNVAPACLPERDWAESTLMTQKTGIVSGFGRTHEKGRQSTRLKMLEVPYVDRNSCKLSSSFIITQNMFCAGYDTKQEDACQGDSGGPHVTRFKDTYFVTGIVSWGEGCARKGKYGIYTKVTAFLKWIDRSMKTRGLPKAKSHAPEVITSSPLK
T1 sequence (P00742 41-179 partner limits assumed): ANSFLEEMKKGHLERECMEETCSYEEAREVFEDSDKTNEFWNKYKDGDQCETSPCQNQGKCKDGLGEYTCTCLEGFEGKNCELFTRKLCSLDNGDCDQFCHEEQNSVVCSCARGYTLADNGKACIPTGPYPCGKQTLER

For orientation: solubility means the concentration that dissolves in the medium under given conditions. By Ki is commonly meant the dissociation constant of the complex between target and ligand, obtained from inhibition or displacement. As for `O=C(NC[C@H]1CN(c2ccc(C3=NCCN3)cc2)C(=O)O1)c1ccc(Cl)s1` [Compound 100, 5-chlorothiophene-2-carboxylic acid {(S)-3-[4-(4,5-dihydro-1H-imidazol-2-yl)-phenyl]-2-oxo-oxazolidin-5-ylmethyl}-amide], the PT with Citrated plasma worked out at 0.22. Besides, the solubility at 90 min in data set [1] came to 441 µM (≈ 179 µg/mL). Further, the “% Inhibition (of thrombus formation)” value with thrombus formation came out at 40%. For the same compound, the inhibition constant Ki at factor Xa [2] was 47 nM. Moreover, in the data set with plasma, the APTT is 2.29. For the same compound, the “Plasma protein binding (% Free)” value with plasma protein is on record as 17 % Free.
With `CN1CCN=C1c1ccc(N2C[C@H](CNC(=O)c3ccc(Cl)s3)OC2=O)cc1` [Compound 101, 5-chlorothiophene-2-carboxylic acid {(S)-3-[4-(1-methyl-4,5-dihydro-1H-imidazol-2-yl)-phenyl]-2-oxo-oxazolidin-5-ylmethyl}-amide], the PT with Citrated plasma is listed as 0.05. This compound also had a solubility at 90 min in data set [1] of 434 µM (≈ 182 µg/mL). In the data set with thrombus formation, the “% Inhibition (of thrombus formation)” value was determined as 2%. Also, the Ki on factor Xa [2] is 2.97 nM. Further, the APTT in the data set with plasma is 0.22. In the data set with plasma protein, the “Plasma protein binding (% Free)” value is recorded as 23 % Free.
Turning to `CCN1CCN=C1c1ccc(N2C[C@H](CNC(=O)c3ccc(Cl)s3)OC2=O)cc1` [Compound 102, 5-chlorothiophene-2-carboxylic acid {(S)-3-[4-(1-ethyl-4,5-dihydro-1H-imidazole-2-yl)-phenyl]-2-oxo-oxazolidin-5-ylmethyl}-amide], the PT in the data set with Citrated plasma is 0.04. In data set [1], the solubility at 90 min is 462 µM (≈ 200 µg/mL). The “% Inhibition (of thrombus formation)” value in the data set on thrombus formation came to 26%. Moreover, the Ki at factor Xa [2] was 3.43 nM. In the data set with plasma, this compound gave an APTT of 0.17. Moreover, the “Plasma protein binding (% Free)” value in the data set on plasma protein stood at 28 % Free.
The compound `CN1CCCN=C1c1ccc(N2C[C@H](CNC(=O)c3ccc(Cl)s3)OC2=O)cc1` [Compound 107, 5-chlorothiophene-2-carboxylic acid {(S)-3-[4-(1-methyl-1,4,5,6-tetrahydropyrimidine-2-yl)-phenyl]-2-oxo-oxazolidin-5-ylmethyl}-amide] returned a PT in the data set with Citrated plasma of 0.09. Besides, in data set [1], the solubility at 90 min turned out to be 411 µM (≈ 178 µg/mL). In addition, the “% Inhibition (of thrombus formation)” value with thrombus formation was 50%. The Ki on factor Xa [2] was 5.7 nM. The APTT in the data set with plasma is listed as 0.28. In addition, in the data set on plasma protein, the “Plasma protein binding (% Free)” value worked out at 31 % Free.
`CCC1=NCCN1c1ccc(N2C[C@H](CNC(=O)c3ccc(Cl)s3)OC2=O)cc1` [Compound 116]: in the data set with Citrated plasma, the PT was 0.05. Besides, in the data set on thrombus formation, the “% Inhibition (of thrombus formation)” value came to 65%. The Ki at factor Xa [2] was 3.46 nM. This compound had an APTT in the data set with plasma of 0.18.
For the compound `O=C(NC[C@H]1CN(c2ccc(N3CCN=C3C3CC3)cc2)C(=O)O1)c1ccc(Cl)s1` [Compound 117], the PT in the data set on Citrated plasma stood at 0.04. In data set [1], this compound gave a solubility at 90 min of 484 µM (≈ 215 µg/mL). Moreover, the “% Inhibition (of thrombus formation)” value with thrombus formation turned out to be 68%. In addition, on factor Xa [2], the inhibition constant (Ki) was 3.18 nM. The compound also gave an APTT in the data set on plasma of 0.29. The “Plasma protein binding (% Free)” value with plasma protein came to 17 % Free.
`O=C(NC[C@H]1CN(c2ccc(N3CCN=C3c3ccco3)cc2)C(=O)O1)c1ccc(Cl)s1` [Compound 123]: the PT in the data set with Citrated plasma is given as 0.07. For the same compound, the solubility at 90 min in data set [1] is 474 µM (≈ 223 µg/mL). Further, the “% Inhibition (of thrombus formation)” value in the data set on thrombus formation is 71%. For the same compound, the Ki on factor Xa [2] was 0.39 nM. The APTT in the data set with plasma is 0.26. In addition, the “Plasma protein binding (% Free)” value with plasma protein is listed as 3 % Free.
In the data set on Citrated plasma, `O=C(NC[C@H]1CN(c2ccc(N3CCN=C3c3ccoc3)cc2)C(=O)O1)c1ccc(Cl)s1` [Compound 124] returned a PT of 0.07. Besides, the “% Inhibition (of thrombus formation)” value in the data set with thrombus formation came to 52%. Moreover, on factor Xa [2], the Ki was 1.71 nM. For the same compound, the APTT with plasma is 0.26.
With `Cc1ccc(C2=NCCN2c2ccc(N3C[C@H](CNC(=O)c4ccc(Cl)s4)OC3=O)cc2)s1` [Compound 131], the PT in the data set with Citrated plasma worked out at 0.08. For the same compound, the “% Inhibition (of thrombus formation)” value in the data set on thrombus formation was 0%. For the same compound, the inhibitory constant (Ki) on factor Xa [2] was 0.69 nM. For the same compound, in the data set on plasma, the APTT is listed as 0.39.
With `O=C(NC[C@H]1CN(c2ccc(N3CCN=C3c3ccc(Cl)s3)cc2)C(=O)O1)c1ccc(Cl)s1` [Compound 132], the PT in the data set on Citrated plasma was 0.29. In the data set with thrombus formation, the “% Inhibition (of thrombus formation)” value was 60%. The Ki at factor Xa [2] was 1.09 nM. Besides, the APTT in the data set on plasma amounted to 0.88.
In the case of `COC(=O)C1(C2=NCCN2c2ccc(N3C[C@H](CNC(=O)c4ccc(Cl)s4)OC3=O)cc2)CC1` [Compound 135], the PT in the data set on Citrated plasma worked out at 0.15. In addition, in the data set on thrombus formation, the “% Inhibition (of thrombus formation)” value was found to be 62%. Further, the inhibitory constant (Ki) at factor Xa [2] was 31.5 nM. The APTT with plasma amounted to 1.34.
In turn, `CC1=NCCN1c1ccc(N2C[C@H](CNC(=O)c3ccc(Br)s3)OC2=O)cc1` [Compound 138] registered a PT with Citrated plasma of 0.04. For the same compound, the “% Inhibition (of thrombus formation)” value in the data set with thrombus formation is 27%. Also, at factor Xa [2], the Ki is 2.38 nM. For the same compound, the APTT with plasma was 0.16.
Consider `O=C(NC[C@H]1CN(c2ccc(N3CCN=C3c3ccco3)cc2)C(=O)O1)c1ccc(Br)s1` [Compound 139], for which the PT in the data set on Citrated plasma was 0.07. In the data set with thrombus formation, the “% Inhibition (of thrombus formation)” value is 60%. In addition, the inhibition constant Ki at factor Xa [2] is 1.47 nM. The APTT in the data set on plasma came to 0.47.
In the same order, the values of `CCC1=NCCCN1c1ccc(N2C[C@H](CNC(=O)c3ccc(Cl)s3)OC2=O)cc1` [Compound 142] are 0.04, 47%, 2.52 nM and 0.17.
In the case of “tick anticoagulant peptide (YNRLCIKPRDWIDECDSNEGGERAYFRNGKGGCDSFWICPEDHTGADYYSSYRDCFNACI; UniProt P17726 1-60, looked up) [TAP]”, the Ki with factor Xa [3] is 0.5 nM.

The values are drawn from patent US8288423B2, “FXa inhibitors with cyclic amidines as P4 subunit, processes for their preparations, and pharmaceutical compositions and derivatives thereof” (Legochem Bioscience Ltd., priority 2007, dated 2012).
